These results are taken from patent US20140066657A1, “DOSAGE REGIMEN FOR A S1P RECEPTOR AGONIST” (Novartis AG, priority 2008, published 2014).

In one data set the test system is multiple sclerosis. The settings on record: humans; Mehling et al. 2008, Kappos et al. 2006; cited from earlier work.
For data set [1], the system named is healthy subjects. Briefly: Double-blind, placebo-controlled dose titration clinical study; heart rate by continuous telemetry and Holter. The format is in vivo, human. The method, then:
A single-center, double-blind, placebo-controlled, dose titration, once-daily, multiple-oral-dose clinical study in healthy subjects was conducted to evaluate the effect of a dosage regimen of FTY720 according to the present invention. A total of 36 subjects were randomly assigned to one of the three groups. Each subject participated in a screening period of maximal 21 days, a baseline period (Day −1), a 9-day dose-administration period, and clinical study completion assessments on Day 10. Subjects were assigned to one of the three groups (dose titration regimen group, placebo Control group, or active control group) and received the once daily dose in a double-blinded manner (Table 1). In the dose titration group, increasing once daily doses of Compound A (FTY720), starting at 0.125 mg o.d. and ending at the maximal therapeutic dose of 1.25 mg o.d. were administered on days 1 to 9 of the study according to the schedule shown in Table 1 below. The placebo control group received placebo through out the duration of the study and the active control group received a once daily dose of 1.25 mg of FTY720 on days 1 to 9. [table] On Day −1 (baseline), subjects will undergo baseline assessments including 24 hour holter monitoring and telemetry assessments. Pharmacodynamic and safety assessments are performed up to 24 hours post last dose. Heart rate is monitored via telemetry on Day −1 through Day 10, 24 hour after the last dosing. Heart rhythm is assessed via 24 hr continuous holter monitoring on Day −1, Day 1, and Day 9. For each dosing for each subject, the drug is administered as closely as practically possible to the time administered on Day −1. Safety assessments includes physical examinations, vital signs and body measurements, 12-lead ECG evaluations, standard clinical laboratory evaluations hematology, blood chemistry, urinalysis, adverse event and serious adverse event monitoring. Systolic and diastolic blood pressure and pulse are measured after the subject has rested quietly in the sitting position for at least 3 minutes. Blood pressure is measured at the same arm on each occasion. Standard 12-lead ECGs are recorded at Screening, baseline, 4 hours post-dose on Day 1 and Day 8, and at Study Completion. The variables recorded are: date and time of ECG, heart rate. PR interval, QT interval (uncorrected), QTcB, QRS duration. The overall interpretation is collected with a Yes/No statement to confirm if any clinically relevant abnormalities are present, which needs to be specified further. Subjects remain on continuous telemetry, starting before breakfast on Day −1 and proceeding throughout the administration period up to Day 10 (24 hour after the last dose). Over this ten day duration of continuous heart rate collection for each subject, one heart rate value is obtained every minute (‘minute unit heart rate’), representing the average heart rate value over that minute. The heart rate database for each subject contains approximately 14,400 data points (10 days×24 hr×60 min). 24-hour continuous Holter-ECG data are captured via a digital Holter monitor (12-lead, on Days −1, 1, 6, and 8), and transferred for interpretation and reporting. Hotter monitoring starts approximately at 7:00 and the time of dose administration is regarded as the time “0 hours'. Holter “cuts” are derived from the dataset at 1 hour intervals starting from Day −1 and continuing for 24 hours or the end of the cleaned Hotter monitoring dataset. Cardiac conduction intervals: arrhythmia monitoring includes the frequency and duration of sinus pauses (>2 sec and >3 sec) and atrio-ventricular blocks. Frequency and duration of atrial and ventricular ectopy and sinus rhythm are also recorded. The daily chronotropic effect is defined as the percent decrease in HRmin (minimum heart rate) between two consecutive days. It is calculated on days 1 to 9.

Data set [2] deals with healthy subjects. Conditions: administration of 1.25 mg; cited from earlier work.
The mark [3] stands for this setting: FTY720 1.25 mg once daily treatment group (active control), oral, healthy subjects.

The structures appear in SMILES notation.

In the case of `CCCCCCCCc1ccc(CCC(N)(CO)CO)cc1.Cl` [FTY720, 2-amino-2-[2-(4-octylphenyl)ethyl]propane-1,3-diol], the “efficacy in the treatment of multiple sclerosis” value in the data set with multiple sclerosis is on record as “has been demonstrated in humans”. In the data set on healthy subjects [1] (setting [3]), the “additional decrease in heart rate (daily average) from Day 1 to Day 2” value was “approximately 3 BPM” and the “decrease in heart rate (daily average) from Day -1 to Day 1” value is listed as “approximately 8 BPM”. Besides, the “gradual decrease in heart rate per day” value in the data set with healthy subjects [1] (FTY720 titration group (0.125/0.25/0.5/1.25 mg o.d.), over the eight day course of the dose titration) was 1-2 BPM per day. Further, the “dip in heart rate on initiation of 1.25 mg compared to the preceding days” value with healthy subjects [1] (FTY720 titration group, initiation of 1.25 mg on Day 8) is given as “does not result in dip in heart rate”. Besides, the “daily minimum heart rates during the course of the study” value in the data set with healthy subjects [1] (dose titration regimen compared with the FTY720 1.25 mg group) is reported as “improved daily minimum heart rates”. Also, in the data set with healthy subjects [1] (dose titration regimen versus 1.25 mg o.d. from Day 1), the “negative chronotropic effect seen on Day 1 of treatment initiation” value is listed as “attenuates the negative chronotropic effect”. Moreover, in the data set with healthy subjects [2], the “decrease in heart rate” value is listed as “approximately 8 beats/min (BPM)”.
